Data as given in patent US6831100B2, “Menthyl benzoate formulations for external UV protection” (priority 2000, dated 2004).

Tests used:
[1] = system: Escherichia coli wild type strain CA 8000; test: UV protection assay for bacteria cultivated in presence of the compounds; format: cell-based; conditions: for Titre estimated (cfu), Initial: bacteria grown in presence of compound, before UV exposure, control 3.73 × 10^7; for Killing % in comparison to the control: bacteria grown with compound, UV exposed
Description: (§1) UV light is not only harmful to humans but also to all other biological systems including microorganisms. The majority of the studies of the effect of UV light on microbes and its modes of action have shown the formation of thymidine dimers, which cause mutations and excessive exposure thus leads to death of the bacteria. […] Therefore, the assays involving the screening of potential UV protectant compounds against bacterial system exposure in presence and absence of test compound is easy, less time consuming and environmentally safe. We carried out simple experiments involving the bacterium Escherichia coli (Wild type) (Kumar, 5. 1976. Journal of Bacteriology, 125: 545-555) as the test system. Escherichia coli is a Gram negative bacterium and sensitive to ultraviolet light. The bacterial cells were grown in broth cultures were exposed to UV light for different time periods and the survival in terms of colony forming units was determined to estimate the killing percentage. The experiments comprised of a series of different steps in two distinct manners/routes (Example 1 and 2 below). In these examples, various quantities were mentioned are not confined to the said limits but can be variable depending upon the need and scale of experiment or screen to be employed. Two different approaches as described below were followed. In one case, the bacterial cells were grown in presence of the test compound and then exposed to UV while, in other case the bacteria were exposed to the two wavelength of UV light filtered through a UV transparent film coated with the compound and using uncoated film as control.
UV Protection Assays for the Bacteria Cultivated in Presence of the Compounds
(§2) Step A: Growing bacterial cultures: The wild type strain CA 8000 of Escherichia coli was in the assays. A single colony was inoculated in 5 ml Luria broth and incubated at 37° C. temperature for 16 hour in a water bath shaker. Bacteria were grown in presence of test compounds with plain LB as growth medium.
Step B: Determining killing percentage of bacteria in relation to UV exposure time: This was done in the following steps.
a. The broth culture was diluted to 10 times in sterile water.
b. About 0.3 ml of the diluted bacterial suspension was transferred to the petriplates forming a thin layer at the bottom (in replicates).
c. In the dark room a UV source was placed at least 10 cm above the plates (This distance may vary depending upon the need of the experiment)
d. The cfu (colony forming unit) count was determined by serially diluting the exposed and control bacteria and plating on the Luria agar plate followed by counting the viable units of the bacteria forming colonies upon incubation at 37° C. overnight.
These two exposure levels were used further in our experiment to test the efficacy of different compounds for UV protection.
Step C: The bacterial cultures were grown in presence of different concentrations of the test compounds, exposed in the same way as in step B and viable cfu count was determined.

[2] = system: Escherichia coli wild type strain CA 8000; test: UV protection assay through compound-coated UV transparent film; format: cell-based; conditions: for Protection (%) / Titre after UV exposure, film coated with menthyl benzoate / Killing (%), film coated with menthyl benzoate: film coated 50 μg per ml, 312 nm; for Titre after UV exposure, film coated with menthyl benzoate: initial titre 2.490 × 10^8
Description: as §1
Exposure of the Bacteria to UV Light Through a UV Transparent Film Coated with the Compound
as §2, with “wild type strain, CA 8000” for “wild type strain CA 8000”, “coli was used in the” for “coli was in the”
Step B: The bacterial culture was harvested by centrifugation and pellet was suspended in equal amount of sterile distilled water. The bacterial pellet was harvested by centrifuging at 5000 RPM for 10 minute and suspended in 25 ml sterile distilled water.
Step C: About 0.3 ml of the broth culture of the bacteria was transferred to petriplates forming a thin layer at the bottom (in replicates). At least 5 replicates per treatment were used along with control plates containing bacteria.
Step D: The plates were covered with UV transparent film, which was coated with different concentrations of the test compounds.
Step E: In the dark room a UV source was placed at least 10 cm above the plates (which may vary depending upon the experiment). In this invention, the UV torch emitting two-fixed wavelength (312 nm and 365 nm) was used.
Step F: Light source was switched-on for different time intervals for the predetermined lethality levels based on the killing curve of control bacteria determined by UV exposure through uncoated film.
Step G: The viable cfu (colony forming unit) count was determined by serially diluting the exposed and control bacteria and then plating on the Luria agar plates followed by counting the viable units of the bacteria forming colonies (Table 1).

[3] = 120 seconds UV exposure (LD70), control 1.119 × 10^7
[4] = 120 seconds UV exposure, control 70.00%
[5] = 150 seconds UV exposure (LD80), control 0.746 × 10^7
[6] = 150 seconds UV exposure, control 80.00%
[7] = UV exposure equivalent to lethality level 10%
[8] = UV exposure equivalent to lethality level 25%
[9] = UV exposure equivalent to lethality level 50%

| SMILES | Titre estimated (cfu), final after UV exposure [1, 3] | Killing (%) after UV exposure [1, 4] [%] | Titre estimated (cfu), final after UV exposure [1, 5] | Killing (%) after UV exposure [1, 6] [%] | Titre estimated (cfu), Initial [1] | Killing % in comparison to the control [1] | Protection (%) [2, 7] [%] | Titre after UV exposure, film coated with menthyl benzoate [2, 7] | Killing (%), film coated with menthyl benzoate ([2]; UV exposure equivalent to lethality level 10%, uncoated film 10.04%) [%] | Protection (%) [2, 8] [%] | Titre after UV exposure, film coated with menthyl benzoate [2, 8] | Killing (%), film coated with menthyl benzoate ([2]; UV exposure equivalent to lethality level 25%, uncoated film 25.02%) [%] | Protection (%) [2, 9] [%] | Titre after UV exposure, film coated with menthyl benzoate [2, 9] | Killing (%), film coated with menthyl benzoate ([2]; UV exposure equivalent to lethality level 50%, uncoated film 50.12%) [%] | Effect on percentage of lethality of the bacteria ([2]; at all levels of lethality tested) | Most optimum concentration coated on the film for UV protection ([2]; out of all concentrations coated on the film, higher concentration does not substantially increase protection) [μg per ml] | UV protection in comparison to other known UV protectants ([1]; 50 μg/ml in culture) | Protection efficiency, comparison between compounds ([1]; descending series of the three compounds) | Safety to the bacterial system: titre (cfu) when bacteria are grown in presence of the compound ([1]; treated versus untreated cultures, no UV) |
| --- | --- | --- | --- | --- | --- | --- | --- | --- | --- | --- | --- | --- | --- | --- | --- | --- | --- | --- | --- | --- |
| O=C(CC(=O)c1ccccc1)c1ccccc1 [Dibenzoyl methane] | 1.162 × 10^7 cfu | 68.85 | 1.050 × 10^7 cfu | 71.85 | 3.73 × 10^7 cfu | much less in comparison to the control | – | – | – | – | – | – | – | – | – | – | – | – | – | – |
| CC1CCC(C(C)C)C(OC(=O)c2ccccc2)C1 (stereo not shown) [Menthyl benzoate, Menthyl Benzoate] | 1.660 × 10^7 cfu | 55.49 | 1.300 × 10^7 cfu | 65.15 | 3.73 × 10^7 cfu | – | 70.01 | 2.415 × 10^8 cfu per ml | 3.01 | 24.58 | 2.020 × 10^8 cfu per ml | 18.87 | 12.67 | 1.400 × 10^8 cfu per ml | 43.77 | reduced the percentage of lethality of the bacteria | 50 | significant protection | better protectant than the commercially used dibenzoyl methane | no decrease of titre was observed |
| O=C(OCc1ccccc1)c1ccccc1 [Benzyl benzoate, Benzyl Benzoate] | 1.460 × 10^7 cfu | 60.86 | 1.240 × 10^7 cfu | 66.75 | 3.73 × 10^7 cfu | much less in comparison to the control | – | – | – | – | – | – | – | – | – | – | – | – | – | – |
